Reference: patent US8993616B2, “(aza)indole derivative and use thereof for medical purposes” (Kissei Pharmaceutical Co., Ltd., priority 2007, dated 2015)

molecular target: Xanthine oxidase (from bovine milk, Sigma) (Bos taurus (Bovine), UniProt P80457); test: Xanthine oxidase inhibitory activity; type: biochemical; conditions: xanthine substrate, 10 minutes at room temperature, absorbance at 290 nm
Method: (1) Preparation of Test Compounds
Test compounds were dissolved in DMSO (Wako) at 40 mM concentration and then diluted to intended concentrations with phosphate-buffered saline (PBS).
(2) Method for Measurement
Xanthine oxidase (from bovine milk, Sigma) was prepared with phosphate-buffered saline (PBS) at 0.02 units/mL, and then the solution was added to 96 well plates at 50 μL/well. In addition, test compounds diluted with PBS were added at 50 μL/well. Xanthine (Wako) at 200 μM prepared with PBS was added at 100 μL/well, and the reaction was conducted for 10 minutes at room temperature. Absorbance at 290 nm was measured using a microplate reader SpectraMax Plus 384 (Molecular device). The absorbance under a condition without xanthine is 0%, and control without test compounds is 100%. Fifty % inhibitory concentration of a test compound (IC50) was calculated (Table 60). Ex. No in the table indicates Example number.

Xanthine oxidase (from bovine milk, Sigma), sequence (P80457 whole entry): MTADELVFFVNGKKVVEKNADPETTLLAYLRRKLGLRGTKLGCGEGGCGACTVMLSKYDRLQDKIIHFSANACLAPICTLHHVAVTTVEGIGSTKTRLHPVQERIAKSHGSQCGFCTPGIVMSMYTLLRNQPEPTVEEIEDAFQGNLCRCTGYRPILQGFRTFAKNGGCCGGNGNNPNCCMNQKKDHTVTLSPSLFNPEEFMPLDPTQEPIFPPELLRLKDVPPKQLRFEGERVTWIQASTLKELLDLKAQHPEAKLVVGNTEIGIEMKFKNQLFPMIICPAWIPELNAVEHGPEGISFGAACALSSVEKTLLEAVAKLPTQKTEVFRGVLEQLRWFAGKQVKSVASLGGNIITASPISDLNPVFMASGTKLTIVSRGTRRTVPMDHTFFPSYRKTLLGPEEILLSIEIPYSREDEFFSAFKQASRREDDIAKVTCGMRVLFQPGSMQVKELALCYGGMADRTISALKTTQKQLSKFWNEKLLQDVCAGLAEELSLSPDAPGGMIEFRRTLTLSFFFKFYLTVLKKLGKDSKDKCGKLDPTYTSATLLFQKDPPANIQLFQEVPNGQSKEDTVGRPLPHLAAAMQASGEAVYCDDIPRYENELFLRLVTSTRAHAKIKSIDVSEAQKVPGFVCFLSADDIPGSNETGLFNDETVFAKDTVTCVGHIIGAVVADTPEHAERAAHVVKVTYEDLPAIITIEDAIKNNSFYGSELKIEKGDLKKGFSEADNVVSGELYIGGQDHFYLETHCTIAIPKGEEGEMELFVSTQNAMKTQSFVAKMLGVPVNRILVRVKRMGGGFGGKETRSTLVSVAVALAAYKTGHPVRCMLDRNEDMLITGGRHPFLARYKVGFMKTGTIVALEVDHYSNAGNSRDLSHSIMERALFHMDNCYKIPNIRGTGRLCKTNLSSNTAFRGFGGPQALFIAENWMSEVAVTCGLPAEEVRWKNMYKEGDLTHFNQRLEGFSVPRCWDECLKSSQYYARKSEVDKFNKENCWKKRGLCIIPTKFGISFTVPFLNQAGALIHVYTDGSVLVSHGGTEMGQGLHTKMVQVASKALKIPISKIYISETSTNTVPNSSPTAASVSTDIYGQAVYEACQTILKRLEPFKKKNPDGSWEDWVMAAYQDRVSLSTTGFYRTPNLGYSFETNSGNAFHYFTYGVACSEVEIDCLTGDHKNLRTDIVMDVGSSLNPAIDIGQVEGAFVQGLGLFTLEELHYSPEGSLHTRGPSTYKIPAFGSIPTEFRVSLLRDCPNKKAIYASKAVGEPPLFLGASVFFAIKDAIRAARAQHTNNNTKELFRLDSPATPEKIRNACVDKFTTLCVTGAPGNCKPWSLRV

| Compound | IC50 [µM] |
| --- | --- |
| CN(C)c1cc2c(C#N)cn(-c3ccc(C(=O)O)cc3)c2cc1C(F)(F)F [Example 300] | 0.096 |
| N#Cc1cn(-c2ccc(C(=O)O)cc2)c2ccc(OCCOc3ccccc3)cc12 [Example 154] | 0.019 |
| N#Cc1cn(-c2ccc(C(=O)O)cc2)c2ccc(OCc3ccccc3)cc12 [Example 151] | 0.0224 |
| N#Cc1cn(-c2ccc(C(=O)O)cc2)c2ccc(/C=C/C(=O)O)cc12 [Example 17, 4-[5-((E)-2-Carboxyvinyl)-3-cyanoindol-1-yl]benzoic acid] | 0.0121 |
| COc1ccc(-c2ccc3c(c2)c(C#N)cn3-c2ccc(C(=O)O)cc2)cc1 [Example 15, 4-[3-Cyano-5-(4-methoxyphenyl)indol-1-yl]benzoic acid] | 0.0155 |
| N#Cc1cn(-c2ccc(C(=O)O)c(O)c2)c2ccc(-c3ccccc3)cc12 [Example 198] | 0.0546 |
| N#Cc1cn(-c2ccc(C(=O)O)cc2)c2ccc(OCCO)cc12 [Example 171] | 0.0109 |
| N#Cc1cn(-c2ccc(C(=O)O)c(O)c2)c2cc(OCCCCO)ccc12 [Example 229] | 0.0071 |
| CCOCCOc1ccc2c(c1)c(C#N)cn2-c1ccc(C(=O)O)cc1 [Example 174] | 0.0244 |
| COc1ccccc1-c1ccc2c(c1)c(C#N)cn2-c1ccc(C(=O)O)cc1 [Example 157] | 0.0141 |
| Cc1cc2c(C#N)cn(-c3ccc(C(=O)O)cc3)c2cc1F [Example 298] | 0.012 |
| CS(=O)(=O)c1ccc(-c2ccc3c(c2)c(C#N)cn3-c2ccc(C(=O)O)cc2)cc1 [Example 167] | 0.0109 |
| CC(C)Oc1cc2c(C#N)cn(-c3ccc(C(=O)O)cc3)c2cc1F [Example 303] | 0.01 |
| N#Cc1cn(-c2ccc(C(=O)O)c(O)c2)c2cc(O)ccc12 [Example 212] | 0.0051 |
| CCCCOc1ccc2c(C#N)cn(-c3ccc(C(=O)O)c(O)c3)c2c1 [Example 221] | 0.0715 |
| N#Cc1cn(-c2ccc(C(=O)O)c(O)c2)c2cccc(O)c12 [Example 203] | 0.0071 |
| N#Cc1cn(-c2ccc(C(=O)O)c(O)c2)c2cc(OCCCN)ccc12 [Example 227] | 0.0104 |
| N#Cc1cn(-c2ccc(C(=O)O)c(O)c2)c2cc(OCCNC(=O)OCc3ccccc3)ccc12 [Example 8, 4-[6-(2-Benzyloxycarbonylaminoethyloxy)-3-cyanoindol-1-yl]-2-hydroxybenzoic acid] | 0.0415 |
| N#Cc1cn(-c2ccc(C(=O)O)c(O)c2)c2cc(Cl)ccc12 [Example 190] | 0.0054 |
| COCCOc1ccc2c(C#N)cn(-c3ccc(C(=O)O)cc3)c2c1 [Example 185] | 0.0402 |
| N#Cc1ccc2c(c1)c(C#N)cn2-c1ccc(C(=O)O)c(O)c1 [Example 206] | 0.0072 |
| N#Cc1cn(-c2ccc(C(=O)O)c(O)c2)c2cc(OCCN)ccc12 [Example 9, 4-[6-(2-Aminoethyloxy)-3-cyanoindol-1-yl]-2-hydroxybenzoic acid] | 0.0125 |
| N#Cc1cn(-c2ccc(C(=O)O)c(O)c2)c2ccc(OCCO)cc12 [Example 210] | 0.007 |
| N#Cc1cn(-c2ccc(C(=O)O)cc2)c2ccc(C(=O)O)cc12 [Example 29, 4-(5-Carboxy-3-cyanoindol-1-yl)benzoic acid] | 0.0433 |
| N#Cc1cn(-c2ccc(C(=O)O)cc2)c2ccc(-c3ccccc3)cc12 [Example 150] | 0.0206 |

| Compound | IC50 [µM] |
| --- | --- |
| N#Cc1cn(-c2ccc(C(=O)O)c(O)c2)c2cc(OCC3CC3)ccc12 [Example 233] | 0.0072 |
| N#Cc1cn(-c2ccc(C(=O)O)c(O)c2)c2c(F)cccc12 [Example 318] | 0.012 |
| CS(=O)(=O)Nc1ccc(-c2ccc3c(c2)c(C#N)cn3-c2ccc(C(=O)O)cc2)cc1 [Example 183] | 0.0075 |
| N#Cc1cn(-c2ccc(C(=O)O)c(O)c2)c2cccc(F)c12 [Example 225] | 0.0046 |
| CN(C)CCOc1ccc2c(C#N)cn(-c3ccc(C(=O)O)c(O)c3)c2c1 [Example 235] | 0.0142 |
| COc1cc2c(C#N)cn(-c3ccc(C(=O)O)cc3)c2cc1F [Example 287] | 0.016 |
| N#Cc1cn(-c2ccc(C(=O)O)c(O)c2)c2cc(-c3ccccc3)ccc12 [Example 199] | 0.0492 |
| Cc1nc(-n2cc(C#N)c3ccccc32)sc1C(=O)O [Example 47, 2-(3-Cyanoindol-1-yl)-4-methylthiazole-5-carboxylic acid] | 0.0586 |
| COc1ccc2c(c1)c(C#N)cn2-c1ccc(C(=O)O)c(O)c1 [Example 196] | 0.0067 |
| CCCOc1ccc2c(C#N)cn(-c3ccc(C(=O)O)c(O)c3)c2c1 [Example 220] | 0.0094 |
| N#Cc1cn(-c2ccc(C(=O)O)c(O)c2)c2cc(OCCO)ccc12 [Example 218] | 0.006 |
| CC(=O)c1ccc(-c2ccc3c(c2)c(C#N)cn3-c2ccc(C(=O)O)cc2)cc1 [Example 166] | 0.0072 |
| N#Cc1cn(-c2ccc(C(=O)O)c(O)c2)c2cc(OCCCO)ccc12 [Example 228] | 0.0075 |
| Cc1cc2c(C#N)cn(-c3ccc(C(=O)O)cc3)c2cc1Cl [Example 295] | 0.009 |
| N#Cc1cn(-c2ccc(C(=O)O)cc2)c2ccc(CO)cc12 [Example 32, 4-(3-Cyano-5-hydroxymethylindol-1-yl)benzoic acid] | 0.0911 |
| COCCOc1ccc2c(C#N)cn(-c3ccc(C(=O)O)c(O)c3)c2c1 [Example 215] | 0.0105 |
| N#Cc1cn(-c2ccc(C(=O)O)c(O)c2)c2cc(OCC(=O)O)ccc12 [Example 216] | 0.0074 |
| N#Cc1cn(-c2ccc(C(=O)O)c(O)c2)c2ccc(OCC(=O)O)cc12 [Example 213] | 0.0072 |
| COc1cccc(-c2ccc3c(c2)c(C#N)cn3-c2ccc(C(=O)O)cc2)c1 [Example 156] | 0.0119 |
| CN(C)CCCOc1ccc2c(C#N)cn(-c3ccc(C(=O)O)c(O)c3)c2c1 [Example 226] | 0.01 |
| N#Cc1cn(-c2ccc(C(=O)O)cc2)c2cccc(OCc3ccccc3)c12 [Example 19, 4-(4-Benzyloxy-3-cyanoindol-1-yl)benzoic acid] | 0.096 |
| N#Cc1cn(-c2ccc(C(=O)O)cc2)c2cc(CO)ccc12 [Example 184] | 0.138 |
| N#Cc1cn(-c2ccc(C(=O)O)cc2)c2ccc(-c3ccncc3)cc12 [Example 159] | 0.0144 |
| COCCOc1ccc2c(c1)c(C#N)cn2-c1ccc(C(=O)O)cc1 [Example 153] | 0.0122 |
| COCOc1cc(-n2cc(C#N)c3ccccc32)ccc1C(=O)O [Example 308] | 0.045 |

| Compound | IC50 [µM] |
| --- | --- |
| N#Cc1cn(-c2ccc(C(=O)O)cc2)c2ccc(OCCCN)cc12 [Example 181] | 0.0172 |
| Cc1ccc2c(c1)c(C#N)cn2-c1ccc(C(=O)O)c(O)c1 [Example 189] | 0.0139 |
| Cc1cc2c(C#N)cn(-c3ccc(C(=O)O)c(O)c3)c2cc1F [Example 316] | 0.01 |
| CC(=O)NCCOc1ccc2c(C#N)cn(-c3ccc(C(=O)O)c(O)c3)c2c1 [Example 12, 4-[6-(2-Acetylaminoethyloxy)-3-cyanoindol-1-yl]-2-hydroxybenzoic acid] | 0.007 |
| N#Cc1cn(-c2ccc(C(=O)O)c(O)c2)c2cc(OCC3CCC3)ccc12 [Example 234] | 0.0865 |
| N#Cc1cn(-c2ccc(C(=O)O)c(O)c2)c2cccc(OCc3ccccc3)c12 [Example 202] | 0.0618 |
| N#Cc1cn(-c2ccc(C(=O)O)c(O)c2)c2cc(OCc3ccccc3)ccc12 [Example 5, 4-(6-Benzyloxy-3-cyanoindol-1-yl)-2-hydroxybenzoic acid] | 0.0336 |
| CN(C)CCCOc1ccc2c(c1)c(C#N)cn2-c1ccc(C(=O)O)cc1 [Example 177] | 0.0164 |
| CCOc1ccc2c(C#N)cn(-c3ccc(C(=O)O)c(O)c3)c2c1 [Example 223] | 0.0075 |
| CS(=O)(=O)Nc1ccc2c(c1)c(C#N)cn2-c1ccc(C(=O)O)cc1 [Example 182] | 0.0163 |
| Cc1cc2c(cc1OCc1ccccc1)c(C#N)cn2-c1ccc(C(=O)O)cc1 [Example 149] | 0.038 |
| CN(Cc1ccccc1)C(=O)c1ccc2c(c1)c(C#N)cn2-c1ccc(C(=O)O)cc1 [Example 161] | 0.0498 |
| N#Cc1cccc2c1c(C#N)cn2-c1ccc(C(=O)O)c(O)c1 [Example 208] | 0.006 |
| COCCNC(=O)c1ccc2c(c1)c(C#N)cn2-c1ccc(C(=O)O)cc1 [Example 162] | 0.0165 |
| N#Cc1cn(-c2ccc(C(=O)O)c(N)c2)c2ccccc12 [Example 42, 2-Amino-4-(3-cyanoindol-1-yl)benzoic acid] | 0.175 |
| N#Cc1cn(-c2ccc(C(=O)O)cc2)c2cc(OCCO)ccc12 [Example 186] | 0.0497 |
| N#Cc1cn(-c2ccc(C(=O)O)c(O)c2)c2cc(OCc3ccc(Cl)cc3)ccc12 [Example 232] | 0.0425 |
| CCOCCOc1ccc2c(C#N)cn(-c3ccc(C(=O)O)c(O)c3)c2c1 [Example 219] | 0.0083 |
| CC(C)Oc1ccc2c(C#N)cn(-c3ccc(C(=O)O)c(O)c3)c2c1 [Example 224] | 0.0097 |
| N#Cc1cn(-c2ccc(C(=O)O)c(O)c2)c2cc(OCCOc3ccccc3)ccc12 [Example 222] | 0.0418 |
| N#Cc1cn(-c2ccc(C(=O)O)cc2)c2cccc(-c3ccccc3)c12 [Example 286] | 0.058 |
| N#Cc1cn(-c2ccc(C(=O)O)cc2)c2ccc(OCc3cccs3)cc12 [Example 27, 4-[3-Cyano-5-(thiophen-2-ylmethyloxy)indol-1-yl]benzoic acid] | 0.0146 |
| N#Cc1cn(-c2ccc(C(=O)O)cc2)c2ccc(OCC(=O)O)cc12 [Example 170] | 0.02 |
| N#Cc1cn(-c2ccc(C(=O)O)cc2)c2ccc(-c3cccs3)cc12 [Example 158] | 0.0095 |
| COc1c(C)cc2c(c(C#N)cn2-c2ccc(C(=O)O)cc2)c1C [Example 288] | 0.01 |
